Legend:
[1] = Example XII: 4 week chick feeding test, first set (Table VI); format: in vivo, broiler cross chicks; details: 25g/T
From the text: (§1) This example compares growth promotion activity of the product of Example I with other growth promotants at a concentration of 25 g/T in the Basal Ration described in Example VII. The other growth promotants include the product described in Example I of U.S. Pat. No. 3,542,784 -- Burch and quinoxaline-1,4-dioxide. Day old broiler cross chicks were weight equalized into groups of 8 chicks each, and four replicates of 8 chicks each were fed the experimental rations over a 4 week period.
The growth promotion tests described in Example X were repeated with the additional testing the products of Examples II and III.

[2] = system: Bordetella bronchiseptica; assay: Bactericide test (agar streak, growth inhibition rated 0/50/100); format: cell-based
From the text: (§2) Test formulations were examined for bactericidal and/or bacteriostatic activity against the test organisms shown in Tables A and B. These organisms were chosen as being representative of commercially important pathogens affecting animal agriculture. The antibiotic chlortetracycline was chosen as a positive control, since it has a broad spectrum of activity against a large number of organisms, and its activity can be used for comparative purposes.
(§3) Basic test formulations of the product of Examples I, II, III, and of chlortetracycline were prepared by dissolving 16 mg (0.016 g) in 2.0 ml of stock emulsifier solution (0.25% Triton X-155 in acetone by volume) and making each solution up to 50 ml with deionized water. The concentration of the test compound in the basic formulation was 320 ppm. Lower concentrations of the test compound were obtained by diluting the basic formulation with a 4% solution of the stock emulsifier in deionized water so that each dilution in the series differed only in test compound content.
(§4) Nutrient-tryptic soy agar (NTA) consisting of 2.0% Difco Bactoagar 0.8% nutrient broth (Difco), and 0.5% tryptic soy broth (Difco) was prepared and sterilized by autoclaving. A 2 ml aliquot of each test formulation was added to 8 ml of molten NTA. This mixture was then plated in a sterile polystyrene petri dish (100 × 15 mm). After the agar was set, suspensions of each of the test organisms were simultaneously streaked onto the surface of the agar. The inoculated plates were incubated for 48 hr. at 28°C. The inhibition of growth of each organism was rated by visual comparison with the organism developing on non-treated agar. Growth inhibition reported as percent control was rated in three categories as follows: 0% control, growth equivalent to that on non-treated agar; 50% control, sparse development and separated colonies; 100% control, no visible growth or development of colonies.

Streptococcus agalactiae = assay: as above; format: cell-based
From the text: as §2, §3, §4

[3] = system: Erysipelothrix rhusiopathiae; assay: as above; format: cell-based
From the text: as §2, §3, §4

Vibrio coli = assay: as above; format: cell-based; details: Campylobacter coli
From the text: as §2, §3, §4

Streptococcus group E = assay: as above; format: cell-based
From the text: as §2, §3, §4

Salmonella typhimurium = assay: as above; format: cell-based; details: Salmonella enterica
From the text: as §2, §3, §4

Streptococcus faecalis = assay: as above; format: cell-based; details: Enterococcus faecalis
From the text: as §2, §3, §4
(§5) Test formulations of the product of Example IV were examined for bactericidal and/or bacteriostatic activity against the test organisms shown in Table B using the Bactericide Test described in Example V. The inhibition of organism growth with each diluted test formulation was rated visually by comparison with the organism developing on a non-treated control agar plate. Growth inhibition reported as percent control was rated in three categories as follows: 0% control, growth equivalent to that on non-treated agar; 50% control is sparse development and separated colonies; and 100% control, development of individual colonies was not apparent.

Salmonella gallinarum = assay: as above; format: cell-based; details: Salmonella enterica
From the text: as §2, §3, §4, §5

Salmonella cholerasuis = assay: as above; format: cell-based
From the text: as §2, §3, §4, §5

Staphylococcus aureus = assay: as above; format: cell-based
From the text: as §2, §3, §4, §5

Escherichia coli = assay: as above; format: cell-based
From the text: as §2, §3, §4, §5

[4] = Example XII: 4 week chick feeding test, repeat with five replicates (Table VII); format: in vivo, broiler cross chicks; details: 25g/T
[5] = Example XI: 4 week chick feeding test, five replicates; format: in vivo, broiler cross chicks; details: Table V
From the text: as §1
The growth promotion tests described in Example X were repeated with the exception that fives replicates of 8 chicks each were fed the formulations described in Table V for four weeks.

[6] = Example X: 4 week chick feeding test, 25 g/T; format: in vivo, broiler cross chicks; details: 25 g/T; Table IV
From the text: as §1

O=[N+]([O-])c1ccc(C=Cc2nc(Nc3ccccc3O)c3ccccc3n2)o1 [Example III, 2-[2-(5-nitro-furyl)vinyl]-4-(o-hydroxyanilino)quinazoline]
Average 4 Week Performance: Feed Efficiency [1]: 1.597
Average 4 Week Performance: Gain [1]: 766.9 g
Improved Response Over Basal Ration: Feed Efficiency [1]: +2.3%
Improved Response Over Basal Ration: Gain [1]: +3.1%
inhibition at 0.125 ppm ([2]; 0.125 ppm): 100%
inhibition at 0.25 ppm ([2]; 0.25 ppm): 100%
inhibition at 0.5 ppm ([2]; 0.5 ppm): 100%
inhibition at 1 ppm ([2]; 1 ppm): 100%
inhibition at 2 ppm ([2]; 2 ppm): 100%
inhibition at 4 ppm ([2]; 4 ppm): 100%
inhibition at 8 ppm ([2]; 8 ppm): 100%
inhibition at 16 ppm ([2]; 16 ppm): 100%
inhibition at 32 ppm ([2]; 32 ppm): 100%
inhibition at 64 ppm ([2]; 64 ppm): 100%
inhibition at 0.125 ppm (Streptococcus agalactiae; 0.125 ppm): 100%
inhibition at 0.25 ppm (Streptococcus agalactiae; 0.25 ppm): 100%
inhibition at 0.5 ppm (Streptococcus agalactiae; 0.5 ppm): 100%
inhibition at 1 ppm (Streptococcus agalactiae; 1 ppm): 100%
inhibition at 2 ppm (Streptococcus agalactiae; 2 ppm): 100%
inhibition at 4 ppm (Streptococcus agalactiae; 4 ppm): 100%
inhibition at 8 ppm (Streptococcus agalactiae; 8 ppm): 100%
inhibition at 16 ppm (Streptococcus agalactiae; 16 ppm): 100%
inhibition at 32 ppm (Streptococcus agalactiae; 32 ppm): 100%
inhibition at 64 ppm (Streptococcus agalactiae; 64 ppm): 100%
inhibition at 0.125 ppm ([3]; 0.125 ppm): 100%
inhibition at 0.25 ppm ([3]; 0.25 ppm): 100%
inhibition at 0.5 ppm ([3]; 0.5 ppm): 100%
inhibition at 1 ppm ([3]; 1 ppm): 100%
inhibition at 2 ppm ([3]; 2 ppm): 100%
inhibition at 4 ppm ([3]; 4 ppm): 100%
inhibition at 8 ppm ([3]; 8 ppm): 100%
inhibition at 16 ppm ([3]; 16 ppm): 100%
inhibition at 32 ppm ([3]; 32 ppm): 100%
inhibition at 64 ppm ([3]; 64 ppm): 100%
inhibition at 0.125 ppm (Vibrio coli; 0.125 ppm): 100%
inhibition at 0.25 ppm (Vibrio coli; 0.25 ppm): 100%
inhibition at 0.5 ppm (Vibrio coli; 0.5 ppm): 100%
inhibition at 1 ppm (Vibrio coli; 1 ppm): 100%
inhibition at 2 ppm (Vibrio coli; 2 ppm): 100%
inhibition at 4 ppm (Vibrio coli; 4 ppm): 100%
inhibition at 8 ppm (Vibrio coli; 8 ppm): 100%
inhibition at 16 ppm (Vibrio coli; 16 ppm): 100%
inhibition at 32 ppm (Vibrio coli; 32 ppm): 100%
inhibition at 64 ppm (Vibrio coli; 64 ppm): 100%
inhibition at 0.125 ppm (Streptococcus group E; 0.125 ppm): 100%
inhibition at 0.25 ppm (Streptococcus group E; 0.25 ppm): 100%
inhibition at 0.5 ppm (Streptococcus group E; 0.5 ppm): 100%
inhibition at 1 ppm (Streptococcus group E; 1 ppm): 100%
inhibition at 2 ppm (Streptococcus group E; 2 ppm): 100%
inhibition at 4 ppm (Streptococcus group E; 4 ppm): 100%
inhibition at 8 ppm (Streptococcus group E; 8 ppm): 100%
inhibition at 16 ppm (Streptococcus group E; 16 ppm): 100%
inhibition at 32 ppm (Streptococcus group E; 32 ppm): 100%
inhibition at 64 ppm (Streptococcus group E; 64 ppm): 100%
inhibition at 0.125 ppm (Salmonella typhimurium; 0.125 ppm): 0%
inhibition at 0.25 ppm (Salmonella typhimurium; 0.25 ppm): 0%
inhibition at 0.5 ppm (Salmonella typhimurium; 0.5 ppm): 0%
inhibition at 1 ppm (Salmonella typhimurium; 1 ppm): 0%
inhibition at 2 ppm (Salmonella typhimurium; 2 ppm): 0%
inhibition at 4 ppm (Salmonella typhimurium; 4 ppm): 0%
inhibition at 8 ppm (Salmonella typhimurium; 8 ppm): 0%
inhibition at 16 ppm (Salmonella typhimurium; 16 ppm): 0%
inhibition at 32 ppm (Salmonella typhimurium; 32 ppm): 0%
inhibition at 64 ppm (Salmonella typhimurium; 64 ppm): 0%
inhibition at 0.125 ppm (Streptococcus faecalis; 0.125 ppm): 0%
inhibition at 0.25 ppm (Streptococcus faecalis; 0.25 ppm): 0%
inhibition at 0.5 ppm (Streptococcus faecalis; 0.5 ppm): 50%
inhibition at 1 ppm (Streptococcus faecalis; 1 ppm): 100%
inhibition at 2 ppm (Streptococcus faecalis; 2 ppm): 100%
inhibition at 4 ppm (Streptococcus faecalis; 4 ppm): 100%
inhibition at 8 ppm (Streptococcus faecalis; 8 ppm): 100%
inhibition at 16 ppm (Streptococcus faecalis; 16 ppm): 100%
inhibition at 32 ppm (Streptococcus faecalis; 32 ppm): 100%
inhibition at 64 ppm (Streptococcus faecalis; 64 ppm): 100%
inhibition at 0.125 ppm (Salmonella gallinarum; 0.125 ppm): 0%
inhibition at 0.25 ppm (Salmonella gallinarum; 0.25 ppm): 0%
inhibition at 0.5 ppm (Salmonella gallinarum; 0.5 ppm): 0%
inhibition at 1 ppm (Salmonella gallinarum; 1 ppm): 0%
inhibition at 2 ppm (Salmonella gallinarum; 2 ppm): 0%
inhibition at 4 ppm (Salmonella gallinarum; 4 ppm): 50%
inhibition at 8 ppm (Salmonella gallinarum; 8 ppm): 50%
inhibition at 16 ppm (Salmonella gallinarum; 16 ppm): 100%
inhibition at 32 ppm (Salmonella gallinarum; 32 ppm): 100%
inhibition at 64 ppm (Salmonella gallinarum; 64 ppm): 100%
inhibition at 0.125 ppm (Salmonella cholerasuis; 0.125 ppm): 0%
inhibition at 0.25 ppm (Salmonella cholerasuis; 0.25 ppm): 0%
inhibition at 0.5 ppm (Salmonella cholerasuis; 0.5 ppm): 0%
inhibition at 1 ppm (Salmonella cholerasuis; 1 ppm): 0%
inhibition at 2 ppm (Salmonella cholerasuis; 2 ppm): 0%
inhibition at 4 ppm (Salmonella cholerasuis; 4 ppm): 50%
inhibition at 8 ppm (Salmonella cholerasuis; 8 ppm): 50%
inhibition at 16 ppm (Salmonella cholerasuis; 16 ppm): 100%
inhibition at 32 ppm (Salmonella cholerasuis; 32 ppm): 100%
inhibition at 64 ppm (Salmonella cholerasuis; 64 ppm): 100%
inhibition at 0.125 ppm (Staphylococcus aureus; 0.125 ppm): 0%
inhibition at 0.25 ppm (Staphylococcus aureus; 0.25 ppm): 0%
inhibition at 0.5 ppm (Staphylococcus aureus; 0.5 ppm): 0%
inhibition at 1 ppm (Staphylococcus aureus; 1 ppm): 0%
inhibition at 2 ppm (Staphylococcus aureus; 2 ppm): 0%
inhibition at 4 ppm (Staphylococcus aureus; 4 ppm): 0%
inhibition at 8 ppm (Staphylococcus aureus; 8 ppm): 0%
inhibition at 16 ppm (Staphylococcus aureus; 16 ppm): 0%
inhibition at 32 ppm (Staphylococcus aureus; 32 ppm): 0%
inhibition at 64 ppm (Staphylococcus aureus; 64 ppm): 0%
inhibition at 0.125 ppm (Escherichia coli; 0.125 ppm): 0%
inhibition at 0.25 ppm (Escherichia coli; 0.25 ppm): 0%
inhibition at 0.5 ppm (Escherichia coli; 0.5 ppm): 0%
inhibition at 1 ppm (Escherichia coli; 1 ppm): 0%
inhibition at 2 ppm (Escherichia coli; 2 ppm): 0%
inhibition at 4 ppm (Escherichia coli; 4 ppm): 0%
inhibition at 8 ppm (Escherichia coli; 8 ppm): 0%
inhibition at 16 ppm (Escherichia coli; 16 ppm): 0%
inhibition at 32 ppm (Escherichia coli; 32 ppm): 0%
inhibition at 64 ppm (Escherichia coli; 64 ppm): 0%
Average 4 Week Performance: Feed Efficiency [4]: 1.669
Average 4 Week Performance: Gain [4]: 723.7 g
Improved Response Over Basal Ration: Feed Efficiency [4]: +6.5%
Improved Response Over Basal Ration: Gain [4]: +6.0%

[O-][n+]1cc[n+]([O-])c2ccccc21 [Quinoxaline-1,4-dioxide, quinoxaline-1,4-dioxide]
feed efficiency (in words) [5]: improvement in feed efficiency
growth rate (in words) [5]: questionable effect on growth
growth rate and feed efficiency response (in words) [6]: did not have any apparent effect
